In brackets after ≈: the same amount, converted by molar mass. Like-named read-outs stand apart in the source and are kept apart here.
Tests used:
Rhinovirus 15 = assay: Anti-rhinovirus activity, cytopathic effect inhibition / neutral red dye uptake, type 15; type: cell-based; details: Enterovirus, WI-38; Table II; one of seven commonest serotypes; read-out: MIC 50 Rhinovirus Type 15
WI38 cells = assay: Toxicity to WI38 cells (change in morphology in / growth inhibition of 25% of the cells); type: cell-based
Rhinovirus 56 = assay: Anti-rhinovirus activity, cytopathic effect inhibition / neutral red dye uptake, type 56; type: cell-based; details: Enterovirus, WI-38; Table II; read-out: MIC 50 Rhinovirus Type 56
Rhinovirus 1A = assay: Anti-rhinovirus activity, cytopathic effect inhibition / neutral red dye uptake, type 1A; type: cell-based; details: Enterovirus, WI-38; Table I; WI38 cells, 33° C., 3-4 days; NA = Not active; read-out: MIC50 Rhinovirus 1A
Rhinovirus 86 = assay: Anti-rhinovirus activity, cytopathic effect inhibition / neutral red dye uptake, type 86; type: cell-based; details: Enterovirus, WI-38; Table II; read-out: MIC 50 Rhinovirus Type 86
Rhinovirus 23 = assay: Anti-rhinovirus activity, cytopathic effect inhibition / neutral red dye uptake, type 23; type: cell-based; details: Enterovirus, WI-38; Table II; read-out: MIC 50 Rhinovirus Type 23
Rhinovirus 88 = assay: Anti-rhinovirus activity, cytopathic effect inhibition / neutral red dye uptake, type 88; type: cell-based; details: Enterovirus, WI-38; Table II; read-out: MIC 50 Rhinovirus Type 88
[1] = test system: 20 serotypes of rhinovirus; assay: Anti-rhinovirus activity against a panel of 20 serotypes; details: Table II; numerator; denominator 20, but 10 for compound 8 and 6 for compound 30
Rhinovirus 17 = assay: Anti-rhinovirus activity, cytopathic effect inhibition / neutral red dye uptake, type 17; type: cell-based; details: Enterovirus, WI-38; Table II; read-out: MIC 50 Rhinovirus Type 17
Rhinovirus 29 = assay: Anti-rhinovirus activity, cytopathic effect inhibition / neutral red dye uptake, type 29; type: cell-based; details: Enterovirus, WI-38; Table II; one of seven commonest serotypes; read-out: MIC 50 Rhinovirus Type 29
Polio 1 = assay: microbe, parasite or virus in culture; type: cell-based; details: Enterovirus, read-out: MIC 50 Polio 1
Rhinovirus 63 = assay: Anti-rhinovirus activity, cytopathic effect inhibition / neutral red dye uptake, type 63; type: cell-based; details: Enterovirus, WI-38; Table II; read-out: MIC 50 Rhinovirus Type 63
Coxsacki-B1 = assay: Activity against other picornaviruses, Coxsacki-B1; type: cell-based; details: Enterovirus, read-out: MIC 50 Cox. B1
Rhinovirus 4 = assay: Anti-rhinovirus activity, cytopathic effect inhibition / neutral red dye uptake, type 4; type: cell-based; details: Enterovirus, WI-38; Table II; one of seven commonest serotypes; read-out: MIC 50 Rhinovirus Type 4
Rhinovirus 44 = assay: Anti-rhinovirus activity, cytopathic effect inhibition / neutral red dye uptake, type 44; type: cell-based; details: Enterovirus, WI-38; Table II; read-out: MIC 50 Rhinovirus Type 44
Echo-7 = assay: Activity against other picornaviruses, Echo-7; type: cell-based; details: Enterovirus, read-out: MIC 50 Echo 7
Rhinovirus 49 = assay: Anti-rhinovirus activity, cytopathic effect inhibition / neutral red dye uptake, type 49; type: cell-based; details: Enterovirus, WI-38; Table II; read-out: MIC 50 Rhinovirus Type 49
HRV-1A and HRV-39 = assay: Anti-rhinovirus activity against HRV-1A and HRV-39; details: in words
Coxsacki-A9 = assay: Activity against other picornaviruses, Coxsacki-A9; type: cell-based; details: Enterovirus, read-out: MIC 50 Cox. A9
Enterovirus serotypes = type: cell-based; details: for All Enterovirus Serotypes (number of serotypes active / tested): Table III, numerator, denominator 7, but 5 for compound 8
Rhinovirus 32 = assay: Anti-rhinovirus activity, cytopathic effect inhibition / neutral red dye uptake, type 32; type: cell-based; details: Enterovirus, WI-38; Table II; read-out: MIC 50 Rhinovirus Type 32
Rhinovirus 30 = assay: Anti-rhinovirus activity, cytopathic effect inhibition / neutral red dye uptake, type 30; type: cell-based; details: Enterovirus, WI-38; Table II; read-out: MIC 50 Rhinovirus Type 30
Echo-11 = assay: Activity against other picornaviruses, Echo-11; type: cell-based; details: Enterovirus, read-out: MIC 50 Echo 11
Rhinovirus 53 = assay: Anti-rhinovirus activity, cytopathic effect inhibition / neutral red dye uptake, type 53; type: cell-based; details: Enterovirus, WI-38; Table II; read-out: MIC 50 Rhinovirus Type 53
Rhinovirus 36 = assay: Anti-rhinovirus activity, cytopathic effect inhibition / neutral red dye uptake, type 36; type: cell-based; details: Enterovirus, WI-38; Table II; read-out: MIC 50 Rhinovirus Type 36
Rhinovirus 39 = assay: Anti-rhinovirus activity, cytopathic effect inhibition / neutral red dye uptake, type 39; type: cell-based; details: Enterovirus, WI-38
Coxsacki-A21 = assay: Activity against other picornaviruses, Coxsacki-A21; type: cell-based; details: Enterovirus, read-out: MIC 50 Cox. A21
Rhinovirus 31 = assay: Anti-rhinovirus activity, cytopathic effect inhibition / neutral red dye uptake, type 31; type: cell-based; details: Enterovirus, WI-38; Table II; one of seven commonest serotypes; read-out: MIC 50 Rhinovirus Type 31
Rhinovirus 1B = assay: Anti-rhinovirus activity, cytopathic effect inhibition / neutral red dye uptake, type 1B; type: cell-based; details: Enterovirus, WI-38; Table II; one of seven commonest serotypes; read-out: MIC 50 Rhinovirus Type 1B
Coxsacki-B4 = assay: Activity against other picornaviruses, Coxsacki-B4; type: cell-based; details: Enterovirus, read-out: MIC 50 Cox. B4
Rhinovirus 2 = assay: Anti-rhinovirus activity, cytopathic effect inhibition / neutral red dye uptake, type 2; type: cell-based; details: Enterovirus, WI-38; Table II; one of seven commonest serotypes; read-out: MIC 50 Rhinovirus Type 2
[2] = Table I, concentration with change in morphology in 25% of WI38 cells
[3] = Table I, WI38 cells, 33° C., 3-4 days, read-out: MIC50 Rhinovirus 39

SMILES	IC50 (Rhinovirus 15)	Toxicity (WI38 cells; [2])	Toxicity (WI38 cells; Table II)	Toxicity (WI38 cells; Table III)	EC50 (Rhinovirus 56)	EC50 (Rhinovirus 1A)	EC50 (Rhinovirus 86)	IC50 (Rhinovirus 23)	EC50 (Rhinovirus 88)	All Rhinovirus Serotypes (number of serotypes active / tested) [1]	IC50 (Rhinovirus 17)	IC50 (Rhinovirus 29)	EC50 (Polio 1)	EC50 (Rhinovirus 63)	IC50 (Coxsacki-B1)	IC50 (Rhinovirus 4)	EC50 (Rhinovirus 44)	IC50 (Echo-7)	EC50 (Rhinovirus 49)	EC50 (Coxsacki-A9)	other results
Cc1cc(CCCCCCCOc2cc(C)nc3ccccc23)on1 [Compound 9, 5-[7-(2-methylquinolin-4-yl)oxyheptyl]-3-methisoxazole]	5 µg/mL (≈ 14.8 µM)	50 µg/mL	50 µg/mL	50 µg/mL	5 µg/mL (≈ 14.8 µM)	5 µg/mL (≈ 14.8 µM)	5 µg/mL (≈ 14.8 µM)	5 µg/mL (≈ 14.8 µM)	< 0.5 µg/mL	19	> 25 µg/mL	5 µg/mL (≈ 14.8 µM)	> 25 µg/mL	5 µg/mL (≈ 14.8 µM)	> 25 µg/mL	10 µg/mL (≈ 29.5 µM)	1 µg/mL (≈ 2.95 µM)	> 25 µg/mL	10 µg/mL (≈ 29.5 µM)	> 25 µg/mL	inhibitory activity against HRV-1A and HRV-39 in vitro (HRV-1A and HRV-39): remarkably inhibitory activity; inhibitory activity against the members of the Entero virus family (Enterovirus serotypes): remarkable inhibitory activity; All Enterovirus Serotypes (number of serotypes active / tested) (Enterovirus serotypes): 2; EC50 (Rhinovirus 32): 10 µg/mL (≈ 29.5 µM); IC50 (Rhinovirus 30): 0.5 µg/mL (≈ 1.48 µM); IC50 (Echo-11): > 25 µg/mL; EC50 (Rhinovirus 53): 5 µg/mL (≈ 14.8 µM); EC50 (Rhinovirus 36): 10 µg/mL (≈ 29.5 µM); EC50 (Rhinovirus 39; [3]): 1 µg/mL (≈ 2.95 µM); EC50 (Rhinovirus 39; Table II, read-out: MIC 50 Rhinovirus Type 39): 5 µg/mL (≈ 14.8 µM); IC50 (Coxsacki-A21): 10 µg/mL (≈ 29.5 µM); EC50 (Rhinovirus 31): 1 µg/mL (≈ 2.95 µM); IC50 (Rhinovirus 1B): 10 µg/mL (≈ 29.5 µM); IC50 (Coxsacki-B4): 10 µg/mL (≈ 29.5 µM); IC50 (Rhinovirus 2): 1 µg/mL (≈ 2.95 µM)
Cc1csc(CCCCCCCOc2ccc3oc4ccccc4c3c2)n1 [Compound 15]	5 µg/mL (≈ 13.2 µM)	50 µg/mL	50 µg/mL	50 µg/mL	5 µg/mL (≈ 13.2 µM)	10 µg/mL (≈ 26.3 µM)	< 0.5 µg/mL	10 µg/mL (≈ 26.3 µM)	< 0.5 µg/mL	14	5 µg/mL (≈ 13.2 µM)	5 µg/mL (≈ 13.2 µM)	5 µg/mL (≈ 13.2 µM)	> 25 µg/mL	25 µg/mL (≈ 65.9 µM)	1 µg/mL (≈ 2.63 µM)	1 µg/mL (≈ 2.63 µM)	10 µg/mL (≈ 26.3 µM)	> 25 µg/mL	1 µg/mL (≈ 2.63 µM)	inhibitory activity against the members of the Entero virus family (Enterovirus serotypes): remarkable inhibitory activity; All Enterovirus Serotypes (number of serotypes active / tested) (Enterovirus serotypes): 6; EC50 (Rhinovirus 32): > 25 µg/mL; IC50 (Rhinovirus 30): 5 µg/mL (≈ 13.2 µM); IC50 (Echo-11): > 25 µg/mL; EC50 (Rhinovirus 53): > 25 µg/mL; EC50 (Rhinovirus 36): > 25 µg/mL; EC50 (Rhinovirus 39; [3]): 5 µg/mL (≈ 13.2 µM); IC50 (Coxsacki-A21): 5 µg/mL (≈ 13.2 µM); EC50 (Rhinovirus 31): 1 µg/mL (≈ 2.63 µM); IC50 (Rhinovirus 1B): 5 µg/mL (≈ 13.2 µM); IC50 (Coxsacki-B4): 10 µg/mL (≈ 26.3 µM); IC50 (Rhinovirus 2): > 25 µg/mL
c1ccc2c(c1)oc1ccc(OCCCCCCc3ccns3)cc12 [Compound 25]	10 µg/mL (≈ 28.5 µM)	50 µg/mL	50 µg/mL	50 µg/mL	10 µg/mL (≈ 28.5 µM)	10 µg/mL (≈ 28.5 µM)	10 µg/mL (≈ 28.5 µM)	5 µg/mL (≈ 14.2 µM)	10 µg/mL (≈ 28.5 µM)	16	10 µg/mL (≈ 28.5 µM)	5 µg/mL (≈ 14.2 µM)	10 µg/mL (≈ 28.5 µM)	5 µg/mL (≈ 14.2 µM)	> 25 µg/mL	> 25 µg/mL	5 µg/mL (≈ 14.2 µM)	5 µg/mL (≈ 14.2 µM)	> 25 µg/mL	10 µg/mL (≈ 28.5 µM)	inhibitory activity against HRV-1A and HRV-39 in vitro (HRV-1A and HRV-39): remarkably inhibitory activity; inhibitory activity against the members of the Entero virus family (Enterovirus serotypes): remarkable inhibitory activity; All Enterovirus Serotypes (number of serotypes active / tested) (Enterovirus serotypes): 4; EC50 (Rhinovirus 32): 10 µg/mL (≈ 28.5 µM); IC50 (Rhinovirus 30): 10 µg/mL (≈ 28.5 µM); IC50 (Echo-11): > 25 µg/mL; EC50 (Rhinovirus 53): 10 µg/mL (≈ 28.5 µM); EC50 (Rhinovirus 36): > 25 µg/mL; EC50 (Rhinovirus 39; [3]): 5 µg/mL (≈ 14.2 µM); IC50 (Coxsacki-A21): 5 µg/mL (≈ 14.2 µM); EC50 (Rhinovirus 31): > 25 µg/mL; IC50 (Rhinovirus 1B): 5 µg/mL (≈ 14.2 µM); IC50 (Coxsacki-B4): > 25 µg/mL; IC50 (Rhinovirus 2): 20 µg/mL (≈ 56.9 µM)

From patent US5026848A, “Novel generation of heteroaryloxyalkyl heterocycles with antipicornaviruses activities” (Synphar Laboratories Incorporated, priority 1988, dated 1991)
